Paper PMC9499525, “Tissue-restricted inhibition of mTOR using chemical genetics” (Proceedings of the National Academy of Sciences of the …, 2022)

How the values were obtained:
[1] = target: T1, FKBP12 V55G-HA / GST-mTOR FRB domain ternary complex (Homo sapiens, UniProt P42345+P62942, V56G); assay: TR-FRET ternary complex formation, FKBP12 V55G with mTOR FRB; format: binding
T1 construct: recombinant HA-tagged wild-type or V55G mutant FKBP12 with GST-tagged mTOR FRB domain; 8xHis (cleaved yes); made in house; host or cells: E. coli BL21 (DE3) for FKBP12
T1 sequence (P62942 whole entry V56G, the tested form may be a part): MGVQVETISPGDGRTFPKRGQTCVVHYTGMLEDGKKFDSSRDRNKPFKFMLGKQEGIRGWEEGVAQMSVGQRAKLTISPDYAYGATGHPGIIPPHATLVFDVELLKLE
T1 sequence (P42345 2012-2144 limits assumed): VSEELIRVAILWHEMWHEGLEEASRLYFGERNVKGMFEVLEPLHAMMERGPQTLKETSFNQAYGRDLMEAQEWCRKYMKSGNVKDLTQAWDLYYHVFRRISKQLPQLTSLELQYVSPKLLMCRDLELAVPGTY
Description: (§1) TR-FRET assay was performed using recommended conditions from Cisbio with slight modifications. FKBP12-HA, FKBP12 V55G-HA, and GST-mTORFRB recombinant proteins were each diluted to 5 nM in assay buffer (20 mM HEPES pH 7.5, 150 mM NaCl, 0.05% Tween-20, 0.1% bovine serum albumin [BSA], 0.5 mM dithiothreitol [DTT]). Anti-GST-Tb (Cisbio) and Anti-HA-XL665 (Cisbio) were diluted to 0.625 µg/mL and 5 µg/mL, respectively, in assay buffer. Rapa* compounds and FK506 were diluted to 50 µM and rapamycin to 5 µM in assay buffer containing 5% DMSO, and threefold serial dilution series were made from these solutions. We mixed 4 µL diluted FKBP12-HA protein, 4 µL diluted GST-mTORFRB, and 4 µL of compound or DMSO control in a well of a black low-volume 384-well plate (Corning 4514), and the mixture was incubated at room temperature for 1 h. We then added 4 µL of Anti-GST-Tb, and 4 µL Anti-HA-XL665, and the mixture was incubated at room temperature for an additional 1 h. Time-resolved fluorescence was read on a Tecan Spark 20M plate reader with the following parameters: Lag time: 60 µs; Integration time: 500 µs; Read A: Excitation filter 320 ([25]) nm, Emission filter 610 ([25]) nm, Gain 130; Read B: Excitation filter 320 ([25]) nm, Emission filter 665 ([8]) nm, Gain 165. Three replicates were performed for each assay condition. […]
Human FKBP12 coding sequence was cloned a pET-47b bacterial expression vector using Gibson assembly and a C-terminal HA-tag was added by QuickChange PCR. FKBP12 proteins were expressed as 8xHis fusions in E. coli BL21 (DE3) cells. […] Samples were then purified by size exclusion chromatography, concentrated to 10-20 mg/mL, and snap frozen in liquid nitrogen. pGEX-2T FRB was a gift from Jie Chen (Addgene plasmid #26607). mTOR FRB was expressed as a GST-fusion and purified as previously described (1). […]
PAMPA was performed by Quintara Discovery as described previously (2). Compounds were analyzed at 100 µM in PBS and measured using liquid chromatography-mass spectrometry (LC-MS) after 5 hours. […] Compounds were analyzed at 10 µM and measured by LC-MS after 1 hour.

[2] = target: T2, FKBP12-HA (wild-type) / GST-mTOR FRB domain ternary complex (Homo sapiens, UniProt P42345+P62942); assay: TR-FRET ternary complex formation, wild-type FKBP12 with mTOR FRB; format: binding
T2 construct: recombinant HA-tagged wild-type or V55G mutant FKBP12 with GST-tagged mTOR FRB domain; 8xHis (cleaved yes); made in house; host or cells: E. coli BL21 (DE3) for FKBP12
T2 sequence (P62942 whole entry, the tested form may be a part): as the sequence (P62942 whole entry V56G, the tested form may be a part) above, with G56V counted along it
T2 sequence (P42345 2012-2144 limits assumed): as the sequence (P42345 2012-2144 limits assumed) above
Description: as §1, with “We mixed 4 µL diluted FKBP12-HA protein, 4 µL diluted GST-mTORFRB, and 4 µL of compound or DMSO control in a well of a black low-volume 384-well plate (Corning 4514), and the mixture was incubated at room temperature for 1 h. We then added 4 µL of Anti-GST-Tb, and 4 µL Anti-HA-XL665, and the mixture was incubated at room temperature for an additional 1 h.” left out, “165.” for “165. Three replicates were performed for each assay condition.”
Human FKBP12 coding sequence was cloned a pET-47b bacterial expression vector using Gibson assembly and a C-terminal HA-tag was added by QuickChange PCR. FKBP12 proteins were expressed as 8xHis fusions in E. coli BL21 (DE3) cells. […]
PAMPA was performed by Quintara Discovery as described previously (2). Compounds were analyzed at 100 µM in PBS and measured using liquid chromatography-mass spectrometry (LC-MS) after 5 hours. […]

[3] = PAMPA membrane permeability; format: in vitro ADME; conditions: 100 µM in PBS, LC-MS
Description: PAMPA and Caco-2 membrane permeability assays
PAMPA was performed by Quintara Discovery as described previously (2). Compounds were
analyzed at 100 µM in PBS and measured using liquid chromatography-mass spectrometry (LC-

[4] = Bidirectional Caco-2 cell permeability; format: in vitro ADME; conditions: human, LC-MS
Description: PAMPA and Caco-2 membrane permeability assays […]
MS) after 5 hours. Bidirectional Caco-2 cell permeability assay was performed by Quintara
Discovery. Compounds were analyzed at 10 µM and measured by LC-MS after 1 hour.

[5] = tested on: Drosophila larvae (w1118 control and FKBP12 V55G transgenic); assay: Drosophila larval development (pupae 9 d after egg laying); format: in vivo
Description: All Drosophila stocks and crosses were maintained on standard cornmeal-molasses food at 25 °C using a 12-h light/dark cycle. To generate UAS-FKBP12 V55G-HA transgenic lines, human FKBP12 V55G-HA ORF was cloned into a pUAST-attB vector between EcoR-I and Xho-I restriction sites. This construct was then integrated into an attB site using phiC31 integrase with the assistance of Rainbow Transgenic Flies, Inc. The driver stocks da-GAL4 (ubiquitous), elav-GAL4 and nSyb-GAL4 (neuronal-specific), Mef2-GAL4 and mhc-GAL4 (musculature), and 2–286-GAL4 and phm-GAL4 (ring-gland-specific) were obtained from Bloomington Drosophila Stock Center. The crossing schemes used in this study are depicted in SI Appendix, Fig. S11. For rapamycin or Rapa*3Z related experiments, fly food was prepared freshly 24 h before each experiment.
Fly food containing ethanol vehicle was used as control. […] Three biological replicates were used for each experiment. Data were analyzed using Prism 9.0 (GraphPad).

[6] = tested on: Flp-In 293 cells with and without FKBP12 V55G-HA; assay: Cell growth by CellTiter-Glo in Flp-In 293 cells; format: cell-based, human; conditions: 72 h treatment
Description: All cell lines were maintained in DMEM (Gibco) supplemented with 10% heat-inactivated FBS (Axenia Biologix) at 37 °C in 5% CO2. Flp-In T-REx 293 cells were obtained from Thermo Fisher supplemented with 15 µg/mL blasticin and 100 µg/mL Zeocin. […] When indicated, cells were treated with drugs at 60–80% confluency at a final DMSO concentration of 0.1%.
Cells were seeded into 96-well tissue-culture treated plates (Greiner) and were allowed to incubate for 24 h. Cells were treated with indicated compounds and incubated for 72 h (100 µL final well volume, 0.1% DMSO). Cell viability was assessed by CellTiter-Glo (Promega). Assay reagent was diluted 1:4 in PBS containing 1% Triton X-100, and 100 µL was added to each well and mixed on a plate shaker for 20 min. Luminescence was measured on a Tecan Spark 20M.

[7] = tested on: S. cerevisiae BY4741 fpr1-KO expressing human FKBP12 variants; assay: Yeast disk diffusion growth inhibition assay; format: cell-based, Saccharomyces cerevisiae; conditions: 100 µM on disk, 3 d
Text: BY4741 fpr1::URA3 yeast were generated by homologous recombination, selected on Ura- synthetic complete medium and subsequently grown in yeast extract-peptone-dextrose (YPD) medium ([46]). Human FKBP12 coding sequence was cloned via Gibson assembly into a pCH043 yeast expression vector, which had been previously modified with an HIS3 selection open reading frame (ORF). The C-terminal HA-tag and F46/V55 mutations were introduced by site-directed mutagenesis PCR. Plasmids were transformed into the BY4741 fpr1::URA3 strain and selected on His- synthetic complete medium. Isolated strains were verified by plasmid sequencing. To prepare yeast protein lysates, 2 optical density (OD) equivalents from an overnight culture was resuspended in 200 µl 0.1 M NaOH and incubated at room temperature for 15 min. Cells were pelleted, resuspended in 50 µL 2x SDS loading dye, and heated at 95 °C for 5 min. Following centrifugation at 20,000 × g for 10 min, supernatant was saved for analysis.
Yeast strains containing FKBP12-expression vectors were shaken overnight at 30 °C in 3 mL His- synthetic complete media. 0.1 OD of culture was spun down, resuspended in 1 mL sterile water, and 100 µL was spread on His-synthetic media containing galactose/raffinose to induce protein expression. Plates were incubated at 30 °C for 1 h to dry. Filter paper circles were prepared with a hole punch, placed on the plate, and 5 µL of DMSO, 100 µM rapamycin, or 100 µM Rapa* compound was pipetted onto the filter paper. Plates were incubated at 30 °C for 3 d before zones of growth inhibition were measured.

Row | Structure (SMILES) | Ternary complex induction (in words), FKBP12 V55G [1] | Ternary complex induction (in words), wild-type FKBP12 [2] | Papp at 5 h, 100 µM [3] | Papp A→B at 1 h, 10 µM [4] | Papp B→A at 1 h, 10 µM [4] | Selectivity of ternary complex induction, wild-type vs V55G ([1]; FKBP12 vs FKBP12 V55G) | Effect on larval development in wild-type animals ([5]; wild-type (w1118) larvae, compound in food) | Dose required for complete inhibition of larval development ([5]; wild-type flies (w1118), in food, 9 d after egg laying) | Cell growth inhibition, 293 cells with and without FKBP12 V55G [6] | Growth inhibition of yeast, fpr1-KO with empty vector [7] | Growth inhibition of yeast expressing wild-type human FKBP12 ([7]; fpr1-KO + human FKBP12) | Growth inhibition of yeast expressing FKBP12 F46/V55 mutants ([7]; mutant strains)
1 | C=CC[C@@H]1/C=C(\C)C[C@H](C)C[C@H](OC)[C@H]2O[C@@](O)(C(=O)C(=O)N3CCCC[C@H]3C(=O)O[C@H](/C(C)=C/[C@@H]3CC[C@@H](O)[C@H](OC)C3)[C@H](C)[C@@H](O)CC1=O)[C@H](C)C[C@@H]2OC [FK506, reference compound] | failed to induce either ternary complex | failed to induce either ternary complex |  |  |  |  |  |  |  |  |  | 
2 | CO[C@H]1C[C@@H]2CC[C@@H](C)[C@@](O)(O2)C(=O)C(=O)N2CCCC[C@H]2C(=O)O[C@H]([C@H](C)C[C@@H]2CC[C@@H](O)[C@H](OC)C2)C/C(=N/O)[C@H](C)/C=C(\C)[C@@H](O)[C@@H](OC)C(=O)[C@H](C)C[C@H](C)/C=C/C=C/C=C/1C [Rapa*-1Z] |  |  | 0.002 ×10⁻⁶ cm/s | < 0.3 ×10⁻⁶ cm/s | 1.6 ×10⁻⁶ cm/s |  |  |  |  |  |  | 
3 | CO[C@H]1C[C@@H]2CC[C@@H](C)[C@@](O)(O2)C(=O)C(=O)N2CCCC[C@H]2C(=O)O[C@H]([C@H](C)C[C@@H]2CC[C@@H](O)[C@H](OC)C2)CC(=O)[C@H](C)/C=C(\C)[C@@H](O)[C@@H](OC)C(=O)[C@H](C)C[C@H](C)/C=C/C=C/C=C/1C [rapamycin, reference compound] |  |  | 0.209 ×10⁻⁶ cm/s | 0.8 ×10⁻⁶ cm/s | 2.3 ×10⁻⁶ cm/s | slightly selective toward the wild-type complex | profound inhibition of larval development | 1 µM | inhibited mutant and wild-type cells equally | conferred resistance to rapamycin | rescued full sensitivity | retained activity, albeit reduced, in the mutant strains
4 | C=CCO/N=C1/C[C@@H]([C@H](C)C[C@@H]2CC[C@@H](O)[C@H](OC)C2)OC(=O)[C@@H]2CCCCN2C(=O)C(=O)[C@]2(O)O[C@@H](CC[C@H]2C)C[C@H](OC)/C(C)=C/C=C/C=C/[C@@H](C)C[C@@H](C)C(=O)[C@H](OC)[C@H](O)/C(C)=C/[C@H]1C [Rapa*-9Z] |  |  | 0.014 ×10⁻⁶ cm/s | < 0.1 ×10⁻⁶ cm/s | 0.4 ×10⁻⁶ cm/s |  |  |  |  |  |  | 
